The results in this text go back to publication PMC9598282 (Antibiotics, 2022).

Read-outs that look alike come from different tables or passages of the source.

Holding throughout (test): microbe, parasite or virus in culture
The subject of one experiment is P. aeruginosa PAO1. It counts as cell-based, Pseudomonas aeruginosa. Particulars: for MIC: Pseudomonas aeruginosa, PAO1, 18 h, read-out: MIC alone. The protocol: (§1) The adjuvant properties of the guanidinylated polymyxins were evaluated using the checkerboard assay as previously described. The bacterial solution was prepared as described in the antimicrobial susceptibility assay. The antibiotic of interest and the adjuvant were serially diluted two-fold along the x- and y-axis on a 96-well plate, respectively, resulting in varying concentrations of both agents in each well. Equal volumes of bacterial solution were added to the designated wells. The well consisting of bacterial solution served as the positive control, while the wells containing only media served as the negative control. The plate was then incubated at 37 °C for 18 h. After incubation, an Emax Plus microplate reader (Molecular Devices, Union City, CA, USA) was used to measure the OD at a wavelength of 590 nm to confirm the turbidity. The fractional inhibitory concentration (FIC) index was then determined to establish the relationship between the antibiotic and adjuvant. The FIC index corresponds to the sum of the FICs of the antibiotic and adjuvant. The FIC of each agent is calculated by dividing its MIC when it is used in combination by its MIC when used alone. FIC indices ≤0.5, 0.5 < x ≤ 4 and >4 indicate synergy, additivity and antagonism, respectively.

The subject of the next experiment is E. coli ATCC 25922. It counts as cell-based, Escherichia coli. On the set-up: key to FIC index antibiotic + GCol / FIC index antibiotic + GPMB: sum of FICs; ≤0.5 synergy, 0.5–4 additivity, >4 antagonism. Particulars: for MIC: Escherichia coli, ATCC25922, 18 h, read-out: MIC alone. The protocol: as §1
A further experiment relates to A. baumannii ATCC 17978. It counts as cell-based, Acinetobacter baumannii. Particulars: for MIC: Acinetobacter baumannii, ATCC17978, 18 h, read-out: MIC alone. The protocol: as §1
[1] abbreviates: agent alone, one value per checkerboard plate.

With `CO[C@@H]1[C@@H](OC(N)=O)[C@@H](O)[C@H](Oc2ccc3c(O)c(NC(=O)c4ccc(O)c(CC=C(C)C)c4)c(=O)oc3c2C)OC1(C)C` [Novobiocin], the “Absolute MIC of antibiotic at 4 μg/mL GCol” value with P. aeruginosa PAO1 turned out to be 128 µg/mL. In addition, in the experiment with P. aeruginosa PAO1, the “Absolute MIC of antibiotic at 4 μg/mL GPMB” value turned out to be 4 µg/mL. For the same compound, the values for the MIC with P. aeruginosa PAO1 (setting [1]), in the experiment with E. coli ATCC 25922 (setting [1]) and in the experiment on A. baumannii ATCC 17978 (setting [1]) were 1020 µg/mL, 128 µg/mL and 8 µg/mL, respectively. For the same compound, the Fold-potentiation of antibiotic with P. aeruginosa PAO1 (at 4 μg/mL GCol) came to 8; in the experiment on P. aeruginosa PAO1 (at 4 μg/mL GPMB), 256; in the experiment with E. coli ATCC 25922 (at 2 μg/mL GCol) it was 1024; in the experiment on E. coli ATCC 25922 (at 2 μg/mL GPMB) it was 256; in the experiment with A. baumannii ATCC 17978 (at 2 μg/mL GCol), 16; in the experiment on A. baumannii ATCC 17978 (at 2 μg/mL GPMB) it was 256. Moreover, the “Absolute MIC of antibiotic at 2 μg/mL GCol” value in the experiment with E. coli ATCC 25922 is 0.125 µg/mL; in the experiment with A. baumannii ATCC 17978, 0.5 µg/mL. The “Absolute MIC of antibiotic at 2 μg/mL GPMB” value in the experiment with E. coli ATCC 25922 was 0.25 µg/mL; in the experiment with A. baumannii ATCC 17978 it was 0.063 µg/mL. In addition, the “FIC index antibiotic + GCol” value with E. coli ATCC 25922 was 0.02. Also, the results for the “FIC index antibiotic + GPMB” value in the experiment with E. coli ATCC 25922 and in the experiment on A. baumannii ATCC 17978 were 0.012 and 0.07, respectively. In addition, the MIC alone in the experiment on E. coli ATCC 25922 (setting [1]) is 64 µg/mL.

For `CCN1CCN(C(=O)N[C@@H](C(=O)N[C@@H]2C(=O)N3[C@@H]2SC(C)(C)[C@@H]3C(=O)O)c2ccccc2)C(=O)C1=O` [Piperacillin], the “Absolute MIC of antibiotic at 4 μg/mL GCol” value with P. aeruginosa PAO1 is 1 µg/mL. For the same compound, the “Absolute MIC of antibiotic at 4 μg/mL GPMB” value in the experiment on P. aeruginosa PAO1 is 1 µg/mL. The MIC in the experiment with P. aeruginosa PAO1 (setting [1]) was 4 µg/mL; in the experiment on E. coli ATCC 25922 (setting [1]), 2 µg/mL; with A. baumannii ATCC 17978 (setting [1]), 64 µg/mL. Besides, the Fold-potentiation of antibiotic in the experiment on P. aeruginosa PAO1 (at 4 μg/mL GCol) amounted to 4; in the experiment with P. aeruginosa PAO1 (at 4 μg/mL GPMB), 4; in the experiment with E. coli ATCC 25922 (at 2 μg/mL GCol) it was 16; with E. coli ATCC 25922 (at 2 μg/mL GPMB), 32; with A. baumannii ATCC 17978 (at 2 μg/mL GCol), 1; with A. baumannii ATCC 17978 (at 2 μg/mL GPMB) it was 1. For the same compound, the results for the “Absolute MIC of antibiotic at 2 μg/mL GCol” value with E. coli ATCC 25922 and in the experiment with A. baumannii ATCC 17978 were 0.125 µg/mL and 64 µg/mL, respectively. Besides, the “Absolute MIC of antibiotic at 2 μg/mL GPMB” value in the experiment on E. coli ATCC 25922 was 0.063 µg/mL; in the experiment on A. baumannii ATCC 17978, 64 µg/mL. The “FIC index antibiotic + GCol” value in the experiment on E. coli ATCC 25922 is recorded as 0.188. The “FIC index antibiotic + GPMB” value in the experiment with E. coli ATCC 25922 was 0.281; with A. baumannii ATCC 17978, 0.375.

Turning to `C=C[C@]1(C)C[C@@H](OC(=O)CO)[C@]2(C)[C@H](C)CC[C@]3(CCC(=O)[C@H]32)[C@@H](C)[C@@H]1O` [Pleuromutilin], the “Absolute MIC of antibiotic at 4 μg/mL GCol” value in the experiment with P. aeruginosa PAO1 worked out at 256 µg/mL. In the experiment on P. aeruginosa PAO1, the “Absolute MIC of antibiotic at 4 μg/mL GPMB” value was determined as 32 µg/mL. The MIC came to 1020 µg/mL with P. aeruginosa PAO1 (setting [1]), 64 µg/mL with E. coli ATCC 25922 (setting [1]) and 512 µg/mL in the experiment on A. baumannii ATCC 17978 (setting [1]). Besides, the Fold-potentiation of antibiotic was 4 in the experiment on P. aeruginosa PAO1 (at 4 μg/mL GCol); 32 in the experiment on P. aeruginosa PAO1 (at 4 μg/mL GPMB); 256 in the experiment on E. coli ATCC 25922 (at 2 μg/mL GCol); 512 with E. coli ATCC 25922 (at 2 μg/mL GPMB); 16 in the experiment with A. baumannii ATCC 17978 (at 2 μg/mL GCol); 256 in the experiment on A. baumannii ATCC 17978 (at 2 μg/mL GPMB). Also, the “Absolute MIC of antibiotic at 2 μg/mL GCol” value amounted to 0.25 µg/mL in the experiment on E. coli ATCC 25922 and 32 µg/mL in the experiment on A. baumannii ATCC 17978. Moreover, the “Absolute MIC of antibiotic at 2 μg/mL GPMB” value in the experiment on E. coli ATCC 25922 was 0.125 µg/mL; in the experiment on A. baumannii ATCC 17978 it was 2 µg/mL. Moreover, the “FIC index antibiotic + GCol” value with E. coli ATCC 25922 turned out to be 0.066. Further, the “FIC index antibiotic + GPMB” value in the experiment on E. coli ATCC 25922 amounted to 0.035; in the experiment with A. baumannii ATCC 17978 it was 0.129.

For `NC[C@H]1O[C@H](O[C@H]2[C@H](O)[C@@H](O[C@H]3O[C@H](CO)[C@@H](O)[C@H](N)[C@H]3O)[C@H](N)C[C@@H]2N)[C@H](N)C[C@@H]1O` [Tobramycin], the “Absolute MIC of antibiotic at 4 μg/mL GCol” value in the experiment on P. aeruginosa PAO1 is 2 µg/mL. Further, the “Absolute MIC of antibiotic at 4 μg/mL GPMB” value in the experiment with P. aeruginosa PAO1 is 2 µg/mL. Further, the “FIC index antibiotic + GPMB” value with P. aeruginosa PAO1 was 1.016; in the experiment with E. coli ATCC 25922 it was 1.031; with A. baumannii ATCC 17978, 1. Besides, the MIC in the experiment with P. aeruginosa PAO1 (setting [1]) came to 2 µg/mL; with E. coli ATCC 25922 (setting [1]), 2 µg/mL; in the experiment with A. baumannii ATCC 17978 (setting [1]), 1 µg/mL. Also, the Fold-potentiation of antibiotic is given as 1 in the experiment on P. aeruginosa PAO1 (at 4 μg/mL GCol); 1 with P. aeruginosa PAO1 (at 4 μg/mL GPMB); 2 in the experiment with E. coli ATCC 25922 (at 2 μg/mL GCol); 1 in the experiment with E. coli ATCC 25922 (at 2 μg/mL GPMB); 1 with A. baumannii ATCC 17978 (at 2 μg/mL GCol); 1 in the experiment on A. baumannii ATCC 17978 (at 2 μg/mL GPMB). Moreover, the “Absolute MIC of antibiotic at 2 μg/mL GCol” value with E. coli ATCC 25922 and in the experiment on A. baumannii ATCC 17978 was 1 µg/mL in each case. Moreover, the “Absolute MIC of antibiotic at 2 μg/mL GPMB” value amounted to 1 µg/mL in the experiment with E. coli ATCC 25922 and 2 µg/mL with A. baumannii ATCC 17978. Besides, the “FIC index antibiotic + GCol” value in the experiment on E. coli ATCC 25922 turned out to be 0.516.

Consider `CN[C@H](CC(C)C)C(=O)N[C@H]1C(=O)N[C@@H](CC(N)=O)C(=O)N[C@H]2C(=O)N[C@H]3C(=O)N[C@H](C(=O)N[C@H](C(=O)O)c4cc(O)cc(O)c4-c4cc3ccc4O)[C@H](O)c3ccc(c(Cl)c3)Oc3cc2cc(c3O[C@@H]2O[C@H](CO)[C@@H](O)[C@H](O)[C@H]2O[C@H]2C[C@](C)(N)[C@H](O)[C@H](C)O2)Oc2ccc(cc2Cl)[C@H]1O` [Vancomycin], for which the “Absolute MIC of antibiotic at 4 μg/mL GCol” value in the experiment on P. aeruginosa PAO1 came to 8 µg/mL. For the same compound, the “Absolute MIC of antibiotic at 4 μg/mL GPMB” value with P. aeruginosa PAO1 is 2 µg/mL. Moreover, the MIC in the experiment on P. aeruginosa PAO1 stood at 256 µg/mL; in the experiment with E. coli ATCC 25922, 128 µg/mL; in the experiment with A. baumannii ATCC 17978 it was 128 µg/mL. The Fold-potentiation of antibiotic in the experiment with P. aeruginosa PAO1 (at 4 μg/mL GCol) worked out at 32; in the experiment on P. aeruginosa PAO1 (at 4 μg/mL GPMB), 128; in the experiment on E. coli ATCC 25922 (at 2 μg/mL GCol), 8; in the experiment with E. coli ATCC 25922 (at 2 μg/mL GPMB), 16; with A. baumannii ATCC 17978 (at 2 μg/mL GCol) it was 2; with A. baumannii ATCC 17978 (at 2 μg/mL GPMB), 8. Besides, the “Absolute MIC of antibiotic at 2 μg/mL GCol” value in the experiment with E. coli ATCC 25922 came out at 16 µg/mL; with A. baumannii ATCC 17978 it was 64 µg/mL. In addition, the figures for the “Absolute MIC of antibiotic at 2 μg/mL GPMB” value in the experiment on E. coli ATCC 25922 and in the experiment with A. baumannii ATCC 17978 were 8 µg/mL and 16 µg/mL, respectively. In addition, in the experiment with E. coli ATCC 25922, the “FIC index antibiotic + GCol” value turned out to be 0.25. The “FIC index antibiotic + GPMB” value in the experiment with E. coli ATCC 25922 was determined as 0.313; in the experiment with A. baumannii ATCC 17978 it was 0.188.
